Test: mn = molality of the nth substance listed, in mol/kg
Settings: Liquid, isochoric method

CCCCn1cc[n+](C)c1.O=S(=O)([O-])C(F)(F)F [1-butyl-3-methylimidazolium trifluoromethanesulfonate] + O=C=O
Settings	molar volume [m3/mol]
303.15 K, 233.6 kPa, m2 = 0.1586	0.0002163
303.15 K, 712 kPa, m2 = 0.5016	0.0002044
303.15 K, 1209.3 kPa, m2 = 0.8577	0.0001937
303.15 K, 1706.3 kPa, m2 = 1.236	0.0001836
303.15 K, 2180.4 kPa, m2 = 1.637	0.0001742
303.15 K, 2663.3 kPa, m2 = 2.038	0.000166
303.15 K, 3188 kPa, m2 = 2.481	0.000158
313.15 K, 244.1 kPa, m2 = 0.1345	0.0002188
313.15 K, 713.2 kPa, m2 = 0.418	0.0002088
313.15 K, 1212.5 kPa, m2 = 0.7087	0.0001997
313.15 K, 1722.9 kPa, m2 = 1.029	0.0001907
313.15 K, 2194.4 kPa, m2 = 1.329	0.0001831
313.15 K, 2669.6 kPa, m2 = 1.632	0.0001761
313.15 K, 3135.3 kPa, m2 = 1.944	0.0001696
323.15 K, 239.4 kPa, m2 = 0.1102	0.0002213
323.15 K, 707.7 kPa, m2 = 0.3453	0.0002129
323.15 K, 1223.5 kPa, m2 = 0.5993	0.0002047
323.15 K, 1721.4 kPa, m2 = 0.8739	0.0001966
323.15 K, 2204.9 kPa, m2 = 1.131	0.0001897
323.15 K, 2697.2 kPa, m2 = 1.397	0.0001832
323.15 K, 3198.1 kPa, m2 = 1.707	0.0001762
333.15 K, 239.9 kPa, m2 = 0.0968	0.0002234
333.15 K, 756.2 kPa, m2 = 0.3124	0.0002157
333.15 K, 1259.5 kPa, m2 = 0.5379	0.0002083
333.15 K, 1767.4 kPa, m2 = 0.7626	0.0002015
333.15 K, 2242.8 kPa, m2 = 0.9814	0.0001953
333.15 K, 2734.2 kPa, m2 = 1.226	0.000189
333.15 K, 3236.7 kPa, m2 = 1.474	0.0001831
343.15 K, 250.3 kPa, m2 = 0.0877	0.0002253
343.15 K, 746.9 kPa, m2 = 0.2655	0.0002189
343.15 K, 1255 kPa, m2 = 0.4535	0.0002126
343.15 K, 1759 kPa, m2 = 0.6555	0.0002063
343.15 K, 2265.7 kPa, m2 = 0.8561	0.0002004
343.15 K, 2732.5 kPa, m2 = 1.072	0.0001946
343.15 K, 3216 kPa, m2 = 1.276	0.0001895

S [hydrogen sulfide] + CCCCn1cc[n+](C)c1.O=S(=O)([O-])C(F)(F)F
Settings	molar volume [m3/mol]
303.15 K, 172.6 kPa, m1 = 0.5717	0.0001972
303.15 K, 339.1 kPa, m1 = 1.141	0.000178
303.15 K, 491.8 kPa, m1 = 1.715	0.0001633
303.15 K, 691.5 kPa, m1 = 2.517	0.0001472
303.15 K, 857 kPa, m1 = 3.192	0.0001371
303.15 K, 1016.5 kPa, m1 = 3.857	0.0001282
303.15 K, 1178.1 kPa, m1 = 4.512	0.0001212
303.15 K, 1368.5 kPa, m1 = 5.449	0.0001129
303.15 K, 1494.2 kPa, m1 = 6.127	0.000108
313.15 K, 169.3 kPa, m1 = 0.4237	0.0002046
313.15 K, 392.6 kPa, m1 = 1.017	0.0001836
313.15 K, 605 kPa, m1 = 1.634	0.0001669
313.15 K, 813.7 kPa, m1 = 2.295	0.0001529
313.15 K, 1021.5 kPa, m1 = 3.03	0.0001406
313.15 K, 1244.6 kPa, m1 = 3.892	0.0001294
313.15 K, 1455.3 kPa, m1 = 4.807	0.00012
313.15 K, 1592.1 kPa, m1 = 5.49	0.0001142
323.15 K, 188 kPa, m1 = 0.3783	0.000208
323.15 K, 418.4 kPa, m1 = 0.874	0.0001897
323.15 K, 647.6 kPa, m1 = 1.409	0.0001741
323.15 K, 1041.4 kPa, m1 = 2.42	0.0001522
323.15 K, 1294 kPa, m1 = 3.138	0.0001407
323.15 K, 1501.2 kPa, m1 = 3.819	0.0001319
323.15 K, 1614.4 kPa, m1 = 4.192	0.0001272
333.15 K, 196.6 kPa, m1 = 0.3257	0.0002118
333.15 K, 459.2 kPa, m1 = 0.7804	0.0001944
333.15 K, 705.7 kPa, m1 = 1.237	0.0001803
333.15 K, 907.8 kPa, m1 = 1.635	0.00017
333.15 K, 1176.8 kPa, m1 = 2.188	0.0001581
333.15 K, 1400.8 kPa, m1 = 2.685	0.0001492
333.15 K, 1570.7 kPa, m1 = 3.114	0.0001426
343.15 K, 207.6 kPa, m1 = 0.279	0.0002154
343.15 K, 456.9 kPa, m1 = 0.6403	0.000201
343.15 K, 706.7 kPa, m1 = 1.021	0.0001882
343.15 K, 923.5 kPa, m1 = 1.369	0.0001783
343.15 K, 1176.5 kPa, m1 = 1.798	0.0001679
343.15 K, 1391.1 kPa, m1 = 2.179	0.0001599
343.15 K, 1632 kPa, m1 = 2.646	0.0001515
